Experimental data: patent publication US20120108538A1, “SULFATED POLYSACCHARIDES HAVING ANTIPLASMODIAL ACTIVITY AND METHODS AND PRODUCTS FOR IDENTIFYING ANTIPLASMODIAL ACTIVITY” (priority 2009, published 2012)

Key:
[1] = system: purified P. falciparum merozoites invading RBCs; assay: Invasion inhibition assay (IIA) using purified merozoites; type: cell-based, Plasmodium falciparum
Method: Purified merozoites were mixed with uninfected RBCs and cultured using standard conditions in 96 well U-bottom plates at a final volume of 50 μl or 100 μl per well. Specific assay conditions were varied for different test conditions, as described in the Results section of the manuscript. Assays were typically performed under static conditions. Some assays were also performed with agitation of merozoite:RBC suspensions.
To test the activity of inhibitory compounds on invasion (Supporting Information Table 3), E64 treated schizonts were resuspended and filtered in culture medium without human serum. A typical merozoite invasion inhibition assay consisted of filtered merozoites (40 ul) added to RBC suspension (5 ul at […]; final concentration 1% hematocrit) and inhibitory compounds (5 ul at 10-times the final concentration required) in 96-well plates. Merozoite:RBCs suspensions containing inhibitors were incubated for one hour and then washed twice with culture medium to remove inhibitors, then resuspended in fresh culture media and incubated and analysed as for standard merozoite invasion assays. A number of compounds were also tested for inhibition of schizont rupture by incubating late stage schizonts (1-2% parasitaemia, 1% haematocrit in 50 ul) with a 1 in 10 dilution of compounds and monitoring the course of schizont rupture at 3 time points over an 8 hour period by flow cytometry.

MSP1-42 = MSP1-42 (Plasmodium falciparum, UniProt Q8I0U8); assay: Binding of native merozoite proteins to heparin-agarose beads with soluble inhibitors; parameters: proteolytically processed into 83 kDa, 30 kDa, 38 kDa and a C-terminal 42kDa (MSP1-42) fragment; endogenous in cells; host or cells: P. falciparum schizont-stage cultures, Triton X-100 extract; species or system P. falciparum; conditions: soluble inhibitor 200 μg/mL
Excerpt: Synchronized schizont stage (40-48 hr, 5-8% parasitemia) cultures were used for protein extraction. Uninfected erythrocytes were lysed with 0.15% saponin (Kodak) on ice for ten minutes. Remaining pellets were washed three times with cold HT-PBS. Protein from schizonts was extracted with 5 times volume of 1% TritonX100 (TX100) (Sigma-Aldrich, Australia), HT-PBS with protease inhibitors (Roche). Insoluble components were pelleted by centrifugation and supernatants collected. Schizont TX100 extracted proteins were bound to heparin-agarose beads (Sigma-Aldrich, Australia) as previously described. Heparin-agarose beads were washed once with 1% casein in PBS, once in PBS, and then blocked with 1% casein in PBS overnight at 4° C. TX100 merozoite protein extracts where incubated with beads containing 0.1% casein and 200 μg/mL of test inhibitor, or PBS as control, overnight at 4° C.; 50 μL of packed beads and 100 μL protein and inhibitor were used or each test sample. Inhibitors used were heparin and CSC. Unbound proteins in the supernatant were collected through Micro Bio-Spin Chromatography Columns (Bio-Rad). After incubation, beads were washed five times with PBS containing 0.1% casein and 1% Triton X-100. Bound proteins were eluted from beads with 50 μL of warmed reducing sample buffer. Bound and unbound proteins were separated by SDS-PAGE under reducing conditions and blotted onto membranes for probing with antibody detection with anti-MSP1 or anti-EBA175. 36. Baum J, Chen L, Healer J, Lopaticki S, Boyle M, et al. (2009) Reticulocyte-binding protein homologue 5—an essential adhesin involved in invasion of human erythrocytes by Plasmodium falciparum: Int J Parasitol 39: 371-380.

lactoferrin = biological target: T1, lactoferrin (Homo sapiens, UniProt P02788); assay: Heparin-BSA binding assay (positive control protein); conditions: data not shown
T1 construct: purchased
Method: Recombinant merozoite antigens were coated (1 μg/mL) onto 96 well plates (Nunc Maxisorb) in HT-PBS overnight at 4° C. Plates were washed and blocked with 1% casein, 1 hr, room temperature. Plates were incubated with heparin-BSA conjugate with soluble inhibitors and detected with anti-BSA (rabbit) (Sigma-Aldrich) antibodies and anti-rabbit -HRP. Detection was performed with 2,2′-azino-bis(3-ethylbenzthiazoline-6-sulphonic acid) (Sigma-Aldrich) monitored for colour change and measured for absorbance at 405 nm. All incubations were performed in HT-PBS 0.1% casein 0:05% Tween20, 1 hr at room temperature. Plates were washed 3 times HT-PBS 0.05% Tween20 between incubations.

[2] = system: P. falciparum 3D7 parasites; assay: Time course of schizont rupture and merozoite invasion/ring formation; type: cell-based, Plasmodium falciparum; conditions: 100 μg/mL
Method: 50 μL of synchronous 3D7 parasites at high parasitemia (5-10%), at approximately 32 hrs trophozoites were incubated as for GIAs with or without inhibitors (100 μg/mL). From approximately 44-48 hr schizonts parasite samples were collected, every 3 hrs for 15 hrs. Cells were stained and analysed as for GIAs to evaluate parasitemia and parasite stage.
To define the mechanism of action of heparin and heparin-like molecules Applicant performed time-course studies of schizont rupture, merozoite invasion and intra-erythrocytic development of P. falciparum in the presence of heparin. Parasite stages were evaluated using flow-cytometry, differentiating between late stage trophozoites and schizont versus ring stage parasites with ethidium bromide staining. […] No inhibition of infra-erythrocytic growth was observed (data not shown).

Sequence of MSP1-42 (Q8I0U8 1327-1699): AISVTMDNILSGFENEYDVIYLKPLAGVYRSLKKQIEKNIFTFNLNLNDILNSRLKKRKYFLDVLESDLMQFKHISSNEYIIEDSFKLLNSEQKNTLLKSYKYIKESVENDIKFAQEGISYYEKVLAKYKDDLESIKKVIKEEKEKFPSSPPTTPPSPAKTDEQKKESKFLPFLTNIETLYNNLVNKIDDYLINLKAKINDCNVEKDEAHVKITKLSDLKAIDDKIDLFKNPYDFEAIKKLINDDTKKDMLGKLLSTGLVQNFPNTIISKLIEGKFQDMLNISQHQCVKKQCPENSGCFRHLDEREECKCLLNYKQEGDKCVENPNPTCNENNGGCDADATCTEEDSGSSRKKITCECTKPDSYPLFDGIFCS
T1 sequence (P02788 20-710, species assumed): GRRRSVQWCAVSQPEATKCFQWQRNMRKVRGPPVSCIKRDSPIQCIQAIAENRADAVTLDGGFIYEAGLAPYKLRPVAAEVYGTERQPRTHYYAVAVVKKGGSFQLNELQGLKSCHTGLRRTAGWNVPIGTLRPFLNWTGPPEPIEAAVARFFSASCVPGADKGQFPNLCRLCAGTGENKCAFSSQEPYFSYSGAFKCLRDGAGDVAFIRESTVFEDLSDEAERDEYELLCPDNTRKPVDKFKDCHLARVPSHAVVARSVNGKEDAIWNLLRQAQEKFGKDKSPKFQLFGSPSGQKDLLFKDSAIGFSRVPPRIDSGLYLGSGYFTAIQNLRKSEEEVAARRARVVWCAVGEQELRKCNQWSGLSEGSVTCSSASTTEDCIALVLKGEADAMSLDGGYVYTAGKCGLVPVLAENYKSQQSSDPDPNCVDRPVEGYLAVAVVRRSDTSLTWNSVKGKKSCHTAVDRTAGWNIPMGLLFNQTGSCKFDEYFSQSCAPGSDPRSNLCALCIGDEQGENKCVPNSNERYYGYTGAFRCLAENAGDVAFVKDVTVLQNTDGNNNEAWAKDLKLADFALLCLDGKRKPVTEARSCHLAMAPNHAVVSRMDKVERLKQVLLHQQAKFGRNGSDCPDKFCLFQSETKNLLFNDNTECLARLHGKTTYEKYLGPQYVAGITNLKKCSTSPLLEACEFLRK

Heparin
inhibition of merozoite invasion in IIA [1]: effectively inhibited merozoite invasion
inhibition of native MSP1-42 binding to heparin-agarose beads (MSP1-42): effectively inhibited
inhibition of lactoferrin binding to heparin-BSA (lactoferrin): inhibited
rates of merozoite invasion and ring formation [2]: very low
schizont rupture compared to control [2]: some delay, but not complete inhibition
inhibition of intra-erythrocytic growth ([2]; data not shown): No inhibition
